Assay results published in patent US20260232554A1, “ORAL CARE AGENT WITH DIMETHYLGLYCINE” (Dr. Kurt Wolff GmbH & Co. KG, priority 2023, published 2026).

Legend:
Assay type in all cases: cell-based, human
HaCaT cells [1] = assay: CyQUANT assay, cell proliferation; details: after 48 h and 72 h of cultivation, versus control without DMG
Protocol: (§1) As part of an in vitro study, the effect of sodium dimethylglycinate was investigated in a cell culture model with human keratin-forming keratinocyte cells. For this purpose, HaCaT cells were cultured for 1, 3, 5 and 7 days in DMEM medium (including fetal calf serum and an antibiotic-antimycotic mix) and the viability, proliferation and migration of the cells were determined using suitable measurement methods and the expression of growth factors relevant for cell growth was determined.
A so-called CyQUANT assay was used to measure proliferation. In this fluorescence-based assay, the fluorescent dye used binds to DNA (deoxyribonucleic acid), whereby the content of cellular DNA is a direct measure of the number of cells within a sample.
(§2) Human epidermal keratinocyte cells (HaCaT) were seeded in a 96-well plate at a cell density of 5,000 cells/well and cultured in medium (DMEM with 10% FBS, 1% penicillin-streptomycin, 0.5% fungizone). On the next day and after a further 24 h, 48 h and 72 h of cultivation at 37° C. and 5 vol. % CO2, the cell culture medium without (control) or with the respective concentrations of active substance already contained was changed. […]

VEGF = VEGF gene expression by qRT-PCR; details: HaCaT; after 24 h of cultivation; versus control without DMG
Protocol: VEGF (vascular endothelial growth factor) promotes the growth and formation of new blood and lymph vessels. Gene expression was measured using a standard method known as quantitative real-time PCR (qRT-PCR).
Human epidermal keratinocyte cells (HaCaT) were seeded in a 6-well plate at a cell density of 140,000 cells/well and cultured in medium (DMEM with 10% FBS, 1% penicillin-streptomycin, 0.5% fungizone) at 37° C. and 5 vol % CO2. On the next day, the cell culture medium without (control) or with the respective concentrations of active substance already contained was changed and the cells were harvested after 24 hours. Gene expression was measured using qRT-PCR based on previously published studies in B. V. Diaz, M.-C. Lenoir, A. Ladoux, C. Frelin, M. Demarchez, S. Michel, Journal of Biological Chemistry 2000, 275, 642-650.

Interleukin-6 (IL-6) = assay: IL-6 gene expression by qRT-PCR after cytokine-induced inflammation; details: HaCaT; 25 ng/ml TNFα and 25 ng/ml IFNγ; DMG 0.005%-0.00005%; 24 h; versus positive control of inflammation induction
Protocol: Interleukin-6 (IL-6) is a peptide hormone of the immune system from the group of pro-inflammatory interleukins and plays a key role in the non-specific, innate immune response. Gene expression was measured using a standard method known as quantitative real-time PCR (qRT-PCR).
Human epidermal keratinocyte cells (HaCaT) were seeded in a 6-well plate at a cell density of 140,000 cells/well and cultured in medium (DMEM with 10% FBS, 1% penicillin-streptomycin, 0.5% fungizone) at 37° C. and 5 vol % CO2. On the next day, cytokine treatment (25 ng/ml tumor necrosis factor-alpha (TNFα) and 25 ng/ml interferon-gamma (IFNγ)) was used to induce cell inflammation. […] with the different DMG drug concentrations (inflammation induction+DMG 0.005%−0.00005%) or without DMG (positive control of inflammation induction). In parallel, cells were treated without any treatment (control) or only with the different DMG drug concentrations (DMG 0.005%−0.00005%) and the cells were harvested after 24 h for gene expression analysis. Gene expression was measured using qRT-PCR based on previously published studies in B. V. Diaz, M.-C. Lenoir, A. Ladoux, C. Frelin, M. Démarchez, S. Michel, Journal of Biological Chemistry 2000, 275, 642-650.

HaCaT cells [2] = assay: MTT assay, cell viability; details: after 48 h and 72 h of cultivation, versus control without DMG
Protocol: as §1
For this measurement, a so-called MTT assay was used to determine cellular metabolic activity as an indicator of cell viability and cytotoxicity. This colorimetric assay is based on the reduction of a yellow tetrazolium salt (3-(4,5-dimethylthiazol-2-yl)-2,5-diphenyltetrazolium bromide or MTT) to purple formazan crystals by metabolically active cells.
as §2, with “sodium dimethylglycinate (DMG)” for “active substance”

HaCaT cells [3] = assay: wound healing assay, migration; details: images after 16 h, 20 h and 24 h, different DMG concentrations, versus control without DMG
Protocol: as §1
A so-called wound healing assay was used to measure migration, based on previously published studies in T. Kawabata, T. Otsuka, K. Fujita, G. Sakai, R. Matsushima-Nishiwaki, O. Kozawa, H. Tokuda, International journal of molecular medicine 2018, 42, 3149-3156. The principle is based on measuring the migration of cells to a not yet colonized cultivation surface over time. For this purpose, 20,000 cells each were seeded into two adjacent wells or cavities separated by a silicone insert (with standardized width) and cultivated in medium (DMEM with 5% FBS, 1% penicillin-streptomycin, 0.5% fungizone) for 48 h at 37° C. and 5 vol % CO2. The plastic insert was then removed (“creation of the wound”) and the migration of the cells was documented by determining the cultivation surface not colonized with cells over time using images. […]

`CN(C)CC(=O)[O-].[Na+]` [DMG, sodium dimethylglycinate] was tested, and the “cell proliferation (CyQUANT, fluorescence normalized to control at 24 h)” value (HaCaT cells [1]) was “clear increase”, the “relative gene expression of VEGF (normalized to GAPDH)” value (VEGF) was “significant increase” and the “expression of interleukin-6 induced by cytokine treatment” value (Interleukin-6 (IL-6)) was “dose-dependently reduced”. The “cell viability (MTT, absorption normalized to control at 24 h)” value (HaCaT cells [2]) was “clear increase” and the “migration or wound closure” value (HaCaT cells [3]) was “significantly faster”.
